Here are results for one molecule from patent US9567318B2, “Substituted pyrimidine compounds and uses thereof” (Memorial Sloan-Kettering Cancer Center, priority 2009, dated 2017).

The subject of assay [1] is Hsp70s expressed in the MRC-5 cells. As to the kind of experiment: Hsp70 competition assay using YK55 beads, MRC-5 extracts. The class given is binding, human. The following applies: MRC-5 normal cell extracts. On the procedure: FIG. 14. YK5 has a higher affinity for tumor Hsp70s and selectively kills cancer cells. (a-c) Cells were treated with the indicated concentrations of inhibitors for the times presented, and metabolically viable cells by Alamar blue uptake as described in Methods (a). Molecular markers of apoptosis (PARP and caspase-3 cleavage) were analyzed in cells treated for 24 h with indicated concentrations of inhibitors, by western blotting (b, c). Morphology of cells treated for 24 h with vehicle or the indicated inhibitors was analyzed by light microscopy (c). (d) Extracts (500 μg) were incubated overnight with beads containing D-biotin (75 μM) or the indicated concentrations of YK55 added to 50 μl streptavidin beads. HS=heat shocked. (e) SKBr3 (200 μg) and MRC-5 (400 μg) extracts and recombinant human Hsp70 (2 μg) were incubated for 3 h with the indicated concentrations with YK5, followed by precipitation of Hsp70 complexes on YK55-beads (50 μM YK55 added to 50 μl streptavidin beads). Data obtained from three independent experiments were graphed (right). Points, mean; bars, s.d.
In a second experiment, the ability of soluble YK5 to compete YK55-binding to normal and cancer cell Hsp70 species were tested (FIG. 14e). […] Interaction of YK5 was even weaker with recombinant human Hsp70 (FIG. 14e).
Hsp70 Competition Assay Using the YK55 Beads. […]

In assay [2] the test system is primary human AML cells (blasts, leukemia stem cells). The experiment in a line: Treatment of primary AML cells. The format is cell-based. As to conditions: 24 h. On the procedure: FIG. 20. Treatment of primary AML cells with YK5. YK5 kills both blast and cancer stem cells but not normal cells. Cells were treated with increasing concentrations of YK5 for 24 h. (a-b) % viability relative to untreated control is shown. Open bars: “Other” represent normal cells in the same patient (non-blast), Gray bars: Blasts (CD45 dim). red bars: leukemia stem cells (LSCs) (CD34+CD38-CD123+). (c) CFU (Colony forming units) decrease after treatment of primary AML cells with YK5. **p<0.001.
Strikingly, a high sensitivity of phenotypically described leukemia stem cells and of total leukemic blasts was observed (FIG. 20b; red vs. gray bars). […] Thus, a compound with cancer stem cell toxicity, such as YKs, is of significant value to improving cancer therapy.
Primary Cell Isolation and Culture. Primary human AML cells were obtained with informed consent. All manipulation and analysis of specimens was approved by the Weill Cornell Medical College Institutional Review Board. Mononuclear cells were isolated using Ficoll-Plaque (Pharmacia Biotech, Piscataway, N.Y.) density gradient separation. In some cases, cells were cryopreserved in freezing medium consisting of Iscove's modified Dulbecco medium (IMDM), 40% fetal bovine serum (FBS), and 10% dimethylsulfoxide (DMSO) or in CryoStor™ CS-10 (Biolife).

For assay [3], the target named is T1, Hsc70 and DJA2 (Homo sapiens, UniProt P11142).
T1 construct: made in house
T1 sequence (P11142 whole entry): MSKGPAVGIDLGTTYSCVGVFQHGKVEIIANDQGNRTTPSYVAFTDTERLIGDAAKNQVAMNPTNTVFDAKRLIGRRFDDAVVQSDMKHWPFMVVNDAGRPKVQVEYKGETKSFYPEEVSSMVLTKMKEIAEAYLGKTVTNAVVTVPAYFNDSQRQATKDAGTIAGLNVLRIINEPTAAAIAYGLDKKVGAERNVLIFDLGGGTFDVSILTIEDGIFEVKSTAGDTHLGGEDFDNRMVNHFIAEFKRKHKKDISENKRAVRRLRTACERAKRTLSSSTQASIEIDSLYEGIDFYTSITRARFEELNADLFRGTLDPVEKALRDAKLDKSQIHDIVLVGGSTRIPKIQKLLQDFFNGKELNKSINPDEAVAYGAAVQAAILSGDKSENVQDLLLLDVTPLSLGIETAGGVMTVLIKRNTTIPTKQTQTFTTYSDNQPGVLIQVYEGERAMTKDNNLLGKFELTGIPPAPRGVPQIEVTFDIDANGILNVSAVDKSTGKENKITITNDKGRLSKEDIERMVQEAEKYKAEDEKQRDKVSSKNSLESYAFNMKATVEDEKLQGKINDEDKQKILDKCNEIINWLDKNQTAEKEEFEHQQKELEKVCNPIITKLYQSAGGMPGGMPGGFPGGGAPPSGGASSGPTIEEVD
As to the kind of experiment: Luciferase refolding by Hsc70 and DJA2. The format is biochemical. As to conditions: 30° C. On the procedure: FIG. 6. YK5 inhibits core biochemical functions of Hsp70s and disrupts the Hsp90/Hsp70 interaction. a) Refolding of denatured luciferase by Hsc70 and DJA2 at 30° C. was measured for the indicated times in the presence of YK5 (100 μM) or vehicle (left), or at 60 min in the presence of indicated concentrations of YK5 (right). b) Hsc70 ATPase rates were measured for reactions at 30° C. with the indicated combinations of Hsc70 and co-chaperones in the presence of vehicle (DMSO) or YK5 (100 μM). ADP production was monitored by thin layer chromatography separation of radiolabeled ADP from ATP and phosphorimaging analysis (lower). […] Proteins isolated with anti-Hsp90 and Hsp70s antibodies (IP: Hsp90 or Hsp70), or present in the cell extract (Lysate) were analyzed by WB. […] Proteins were applied to a native gel and analyzed by immunoblotting. […]
Hsc70 ATPase Activity and Luciferase Refolding. Human Hsc70, DJA1/DNAJA1, DJA2/DNAJA2 and Hsp110/Hsp105/HSPH1 were purified and analyzed. […] Samples at time points were terminated with 37.5 mM EDTA and analyzed by thin layer chromatography on polyethylene-imine cellulose (Mallinckrodt Baker) developed in 0.5 M LiCl and 0.5 M formic acid. The ADP produced was determined by image phosphor quantitation and the linear enzymatic rates (Vmax) were calculated by regression analysis. […]

SMILES strings stand for the structures.

As for `C=CC(=O)Nc1cc(N)nc(Sc2c(OC)nc(N3CCN(C)CC3)nc2OC)n1` [YK5, N-(6-amino-2-(4,6-dimethoxy-2-(4-methylpiperazin-1-yl)pyrimidin-5-ylthio)pyrimidin-4-yl)acrylamide], the “concentration necessary to observe displacement of Hsp70s from YK55-beads” value in assay [1] is “exceeded 200 μM”. The “cell death in primary AML specimens” value in assay [2] was “induced potent cell death in blast, stem and progenitor populations”. In addition, the “refolding of luciferase by purified Hsc70 and DJA2” value in assay [3] is “dose-dependently inhibited the refolding of luciferase”.
